Reference: PubChem BioAssay (NCI)
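Step 1: Grow cells in 96-well plates. Step 2: Expose to compound for 48 hours at 5 concentrations. Step 3: Interpolate endpoints linearly; if unreached, use highest concentration. Here, GI50 denotes the concentration required for 50% inhibition of growth. TGI: concentration producing complete growth inhibition.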

How the values were obtained:
Assay in all cases: inhibition of tumour cell growth, NCI panel, 48 h; in the data active means GI50 below about 0.43 µM; inactive means the rest
NCI/ADR-RES ovarian = test system: NCI/ADR-RES ovarian
U251 CNS = test system: U251 CNS
PC-3 prostate = test system: PC-3 prostate
MDA-MB-231 breast = test system: MDA-MB-231 breast
UACC-257 melanoma = test system: UACC-257 melanoma
MOLT-4 leukemia = test system: MOLT-4 leukemia
HS 578T breast = test system: HS 578T breast
ACHN renal = test system: ACHN renal
HT29 colon = test system: HT29 colon
RPMI-8226 leukemia = test system: RPMI-8226 leukemia
BT-549 breast = test system: BT-549 breast
A498 renal = test system: A498 renal
CCRF-CEM leukemia = test system: CCRF-CEM leukemia
SK-OV-3 ovarian = test system: SK-OV-3 ovarian
COLO 205 colon = test system: COLO 205 colon
IGROV1 ovarian = test system: IGROV1 ovarian
TK-10 renal = test system: TK-10 renal
RXF 393 renal = test system: RXF 393 renal
HOP-92 NSCLC = test system: HOP-92 NSCLC
LOX IMVI melanoma = test system: LOX IMVI melanoma
MDA-MB-435 = test system: MDA-MB-435
SNB-19 CNS = test system: SNB-19 CNS
SF-295 CNS = test system: SF-295 CNS
NCI-H522 lung = test system: NCI-H522 lung
UACC-62 melanoma = test system: UACC-62 melanoma
SF-268 CNS = test system: SF-268 CNS
OVCAR-8 ovarian = test system: OVCAR-8 ovarian
HCT-15 colon = test system: HCT-15 colon
OVCAR-5 ovarian = test system: OVCAR-5 ovarian
NCI-H23 lung = test system: NCI-H23 lung
M14 melanoma = test system: M14 melanoma
SNB-75 CNS = test system: SNB-75 CNS
HOP-62 NSCLC = test system: HOP-62 NSCLC
SK-MEL-2 melanoma = test system: SK-MEL-2 melanoma
KM12 colon = test system: KM12 colon
SK-MEL-28 melanoma = test system: SK-MEL-28 melanoma
A549 NSCLC = test system: A549 NSCLC
SK-MEL-5 melanoma = test system: SK-MEL-5 melanoma
T-47D breast = test system: T-47D breast
OVCAR-3 ovarian = test system: OVCAR-3 ovarian
NCI-H460 lung = test system: NCI-H460 lung
SR leukemia = test system: SR leukemia
HCT-116 colon = test system: HCT-116 colon
K-562 leukemia = test system: K-562 leukemia
SF-539 CNS = test system: SF-539 CNS
UO-31 renal = test system: UO-31 renal
MALME-3M melanoma = test system: MALME-3M melanoma
MCF7 breast = test system: MCF7 breast
786-0 renal = test system: 786-0 renal
OVCAR-4 ovarian = test system: OVCAR-4 ovarian
HCC-2998 colon = test system: HCC-2998 colon
NCI-H226 lung = test system: NCI-H226 lung
MDA-MB-468 breast = test system: MDA-MB-468 breast
SN12C renal = test system: SN12C renal
CAKI-1 renal = test system: CAKI-1 renal
SW-620 colon = test system: SW-620 colon
EKVX NSCLC = test system: EKVX NSCLC
DU-145 prostate = test system: DU-145 prostate
HL-60(TB) leukemia = test system: HL-60(TB) leukemia

COc1cc2c3c(n(CCCn4ccnc4)c(=O)c2cc1OC)-c1nc2c(cc1C3=O)OCO2
4.63 µM: TGI (SK-MEL-5 melanoma)
> 36.4 µM: TGI (NCI-H460 lung)
> 69.3 µM: TGI (M14 melanoma)
16.3 µM: TGI (MCF7 breast)
37.6 µM: TGI (NCI-H522 lung)
24.5 µM: TGI (SR leukemia)
0.115 µM: TGI (MDA-MB-468 breast)
active: GI50 (U251 CNS) 0.0621 µM | GI50 (MOLT-4 leukemia) 0.0356 µM | GI50 (ACHN renal) 0.0389 µM | GI50 (BT-549 breast) 0.356 µM | GI50 (CCRF-CEM leukemia) 0.028 µM | GI50 (SK-OV-3 ovarian) 0.0459 µM | GI50 (RXF 393 renal) 0.335 µM | GI50 (LOX IMVI melanoma) 0.0448 µM | GI50 (SNB-19 CNS) 0.0685 µM | GI50 (SF-295 CNS) 0.0351 µM | GI50 (UACC-62 melanoma) 0.0359 µM | GI50 (SF-268 CNS) 0.0769 µM | GI50 (NCI-H23 lung) 0.0442 µM | GI50 (M14 melanoma) 0.0554 µM | GI50 (SNB-75 CNS) 0.03 µM | GI50 (HOP-62 NSCLC) 0.0339 µM | GI50 (SK-MEL-5 melanoma) 0.07 µM | GI50 (T-47D breast) 0.0376 µM | GI50 (NCI-H460 lung) 0.0325 µM | GI50 (SR leukemia) 0.0274 µM | GI50 (HCT-116 colon) 0.169 µM | GI50 (K-562 leukemia) 0.0742 µM | GI50 (SF-539 CNS) 0.0363 µM | GI50 (UO-31 renal) 0.197 µM | GI50 (MCF7 breast) 0.0247 µM | GI50 (786-0 renal) 0.105 µM | GI50 (NCI-H226 lung) 0.124 µM | GI50 (MDA-MB-468 breast) 0.028 µM | GI50 (SN12C renal) 0.134 µM | GI50 (CAKI-1 renal) 0.04 µM | GI50 (SW-620 colon) 0.207 µM | GI50 (DU-145 prostate) 0.0616 µM | GI50 (HL-60(TB) leukemia) 0.0485 µM
26.3 µM: TGI (BT-549 breast)
11.3 µM: TGI (NCI-H23 lung)
0.525 µM: TGI (SF-539 CNS)
5.83 µM: TGI (LOX IMVI melanoma)
12.8 µM: TGI (SF-295 CNS)
> 100 µM: TGI (NCI/ADR-RES ovarian) | TGI (U251 CNS) | TGI (PC-3 prostate) | TGI (MDA-MB-231 breast) | TGI (UACC-257 melanoma) | TGI (MOLT-4 leukemia) | TGI (HS 578T breast) | TGI (HT29 colon) | TGI (RPMI-8226 leukemia) | TGI (A498 renal) | TGI (SK-OV-3 ovarian) | TGI (COLO 205 colon) | TGI (IGROV1 ovarian) | TGI (TK-10 renal) | TGI (RXF 393 renal) | TGI (HOP-92 NSCLC) | TGI (MDA-MB-435) | TGI (SNB-19 CNS) | TGI (UACC-62 melanoma) | TGI (SF-268 CNS) | TGI (OVCAR-8 ovarian) | TGI (HCT-15 colon) | TGI (OVCAR-5 ovarian) | TGI (SNB-75 CNS) | TGI (HOP-62 NSCLC) | TGI (SK-MEL-2 melanoma) | TGI (KM12 colon) | TGI (SK-MEL-28 melanoma) | TGI (A549 NSCLC) | TGI (T-47D breast) | TGI (OVCAR-3 ovarian) | TGI (HCT-116 colon) | TGI (K-562 leukemia) | TGI (UO-31 renal) | TGI (MALME-3M melanoma) | TGI (OVCAR-4 ovarian) | TGI (HCC-2998 colon) | TGI (NCI-H226 lung) | TGI (SN12C renal) | TGI (CAKI-1 renal) | TGI (SW-620 colon) | TGI (EKVX NSCLC) | TGI (DU-145 prostate) | TGI (HL-60(TB) leukemia)
inactive: GI50 (NCI/ADR-RES ovarian) > 100 µM | GI50 (PC-3 prostate) 32.2 µM | GI50 (MDA-MB-231 breast) 45.1 µM | GI50 (HS 578T breast) > 100 µM | GI50 (HT29 colon) 0.637 µM | GI50 (RPMI-8226 leukemia) 0.852 µM | GI50 (A498 renal) > 100 µM | GI50 (COLO 205 colon) 12.6 µM | GI50 (IGROV1 ovarian) > 52 µM | GI50 (TK-10 renal) > 100 µM | GI50 (HOP-92 NSCLC) > 47.1 µM | GI50 (MDA-MB-435) 4.7 µM | GI50 (NCI-H522 lung) 1.07 µM | GI50 (OVCAR-8 ovarian) 0.803 µM | GI50 (HCT-15 colon) 13.1 µM | GI50 (OVCAR-5 ovarian) > 36.7 µM | GI50 (SK-MEL-2 melanoma) > 100 µM | GI50 (KM12 colon) > 100 µM | GI50 (SK-MEL-28 melanoma) > 100 µM | GI50 (A549 NSCLC) 3.31 µM | GI50 (OVCAR-3 ovarian) 38.5 µM | GI50 (MALME-3M melanoma) 13.1 µM | GI50 (OVCAR-4 ovarian) > 100 µM | GI50 (HCC-2998 colon) 19.4 µM | GI50 (EKVX NSCLC) > 66.4 µM
